According to US20230174548A1, “SYMBIOTIC PRODRUGS FOR THE TREATMENT OF CANCER AND OTHER DISEASES” (BOARD OF REGENTS OF THE UNIVERSITY OF NEBRASKA, priority 2020, published 2023):
Blank lines part the entries; values can stand above or below the compound they belong to.

What was measured:
[1] = test system: FTE282E1, OVSAHO, HPNE, MiaPaCa2 and S2013 cell lines; assay: growth inhibition assays in a panel of five cell lines; conditions: for potency rank among inhibitors treated as single agents: irrespective of the cell line
RELA = molecular target: T1, RELA (Homo sapiens, UniProt Q04206); assay: target engagement in A2780 cells (click chemistry pull-down, Western blot); assay type: cell-based; conditions: 48 h
T1 construct: endogenous in cells; host or cells: A2780
Protocol: (§1) Briefly, the cells were incubated with 10 μM of compound 4 for […]. In cells, compound 4 is converted to compound 3 with an active methylene group which reacts with surface-exposed cysteine residues on proteins. The lysate was treated with click reagents (TCEP, TBTA and CuSO4) and azido-biotin. Biotin-tagged-3-bound proteins were subjected to monoavidin column. Biotin-tagged proteins were captured, the column was washed to removed untagged proteins and the biotin-tagged-3-bound proteins were eluted with regeneration buffer (6M urea/PBS). The eluted lysates were subjected to Western blot analyses and probed for proteins (IKKβ, RELA, IκBα and IKKγ) in the IKK complex.
(§2) To determine target engagement in cells, cancer cells (A2780) were treated with the compound 4, which is an alkyne-tagged analog of prodrug compound 19-AP1 for 48 h (FIG. 2B). Cells were then harvested, washed and pelleted. Unbound compound 4 was removed by extensively washing the cell pellet. The cell pellets were lysed, and 2 mg/mL of lysates were subjected to click chemistry with TAMRA-Biotin-Azide trifunctional probe (10 mM stock, 20 μL, click chemistry tools), and other click reagents (TCEP, 100 mM stock, 20 μL; TBTA 13.5 mM stock, 20 μL and CuSO4 100 mM stock, 10 μL) to make total volume of 1 mL. The reaction was incubated for 3 h at RT. The lysates were incubated with monomeric avidin beads for additional 1 h. […]

IKKβ = molecular target: T2, IKKβ (Homo sapiens, UniProt O14920); assay: as above; assay type: cell-based; conditions: 48 h
T2 construct: endogenous in cells; host or cells: A2780
Protocol: as §1, §2

[2] = test system: 9 ovarian cancer and 2 immortalized fallopian tube epithelial cell lines; assay: growth inhibition, expanded panel, average over cell lines; assay type: cell-based; conditions: average over 11 cell lines
Description: The ^AveCI for compound 5 in SKOV3 cells was 0.2 indicating strong synergism.

[3] = test system: SKOV3 ovarian cancer cell line; assay: growth inhibition, synergy studies; assay type: cell-based; conditions: for IC50: Homo sapiens, SK-OV-3, SKOV3, read-out: IC50 (Mean ± SD)
[4] = test system: OVCAR5 ovarian cancer cell line; assay: growth inhibition, synergy studies; assay type: cell-based; conditions: Homo sapiens, OVCAR-5, read-out: IC50 (Mean ± SD)
CDK6 = CDK6 (Homo sapiens, UniProt Q00534); assay: cell-free CDK inhibitor assay; assay type: biochemical; conditions: for fold less potent than palbociclib: CDK6; for IC50: CDK6, cell-free
[5] = test system: OVCAR4 ovarian cancer cell line; assay: growth inhibition, synergy studies; assay type: cell-based; conditions: Homo sapiens, OVCAR-4, read-out: IC50 (Mean ± SD)
[6] = test system: Kuramochi ovarian cancer cell line; assay: growth inhibition, synergy studies; assay type: cell-based; conditions: read-out: IC50 (Mean ± SD)
[7] = test system: CaOV3 ovarian cancer cell line; assay: growth inhibition, synergy studies; assay type: cell-based; conditions: Homo sapiens, Caov-3, read-out: IC50 (Mean ± SD)
[8] = test system: FT282C11 immortalized fallopian tube epithelial cell line; assay: growth inhibition, synergy studies; assay type: cell-based; conditions: read-out: IC50 (Mean ± SD)
[9] = test system: OVSAHO ovarian cancer cell line; assay: growth inhibition, synergy studies; assay type: cell-based; conditions: for IC50: Homo sapiens, OVSAHO, read-out: IC50 (Mean ± SD)
[10] = test system: A2780 ovarian cancer cell line; assay: growth inhibition, synergy studies; assay type: cell-based; conditions: Homo sapiens, read-out: IC50 (Mean ± SD)
[11] = test system: SNU119 ovarian cancer cell line; assay: growth inhibition, synergy studies; assay type: cell-based; conditions: read-out: IC50 (Mean ± SD)
[12] = test system: FT282E1 immortalized fallopian tube epithelial cell line; assay: growth inhibition, synergy studies; assay type: cell-based; conditions: for IC50: Epithelial cell, FT282E1, read-out: IC50 (Mean ± SD)
CDK4 = CDK4 (Homo sapiens, UniProt P11802); assay: cell-free CDK inhibitor assay; assay type: biochemical; conditions: for fold less potent than palbociclib: CDK4; for IC50: CDK4, cell-free
[13] = test system: OVCAR8 ovarian cancer cell line; assay: growth inhibition, synergy studies; assay type: cell-based; conditions: Homo sapiens, OVCAR-8, read-out: IC50 (Mean ± SD)
[14] = cysteine binding assay using Ellman's reagent; assay type: physicochemical; conditions: 19 vs prodrug under similar conditions
Description: Without wishing to be bound by theory, it is believed that the α-methylene-γ-butyrolactone moiety on compound 19 is reactive toward biological nucleophiles such as glutathione and cysteine. To determine if secondary amine prodrug of compound 19 (Compound 19-AP1) results in improved stability, the reactivity of analog compound 19 and the prodrug compound 19-AP1 was compared in a cysteine binding assay using Ellman's reagent (FIG. 1B).

[15] = test system: FT282E1 immortalized fallopian tube epithelial cells; assay: 72 h growth inhibition assay; assay type: cell-based; conditions: Epithelial cell; FT282E1, 72 h
Protocol: (§3) The cancer cell growth-inhibitory potential of amine-prodrugs (compounds 19-AP1 and 19-AP2) was evaluated. Compounds 19, 19-AP1 and 19-AP2 were screened in ovarian cancer lines (A2780, and OVSAHO) and immortalized fallopian tube epithelial cells (FT282E1) in a 72 h growth inhibition assay.

[16] = test system: OVSAHO ovarian cancer line; assay: 72 h growth inhibition assay; assay type: cell-based; conditions: for IC50: Homo sapiens, 72 h
Protocol: as §3

[17] = test system: A2780 ovarian cancer line; assay: 72 h growth inhibition assay; assay type: cell-based; conditions: Homo sapiens, A2780, 72 h
Protocol: as §3

[18] = 19F NMR kinetics of release of compound 19 from prodrug; assay type: physicochemical; conditions: release of 4-trifluoromethylpiperidine
Description: Next, to assess the kinetics of the release of the active compound 19 from the prodrug compound 19-AP1, the release of 4trifluoropiperidine from the prodrug compound 19-AP1 was monitored using ^19F-NMR spectroscopy following a reported method. (Woods, Mo, Bieberich, Alavanja, & Colby, 2011). […] This observation is consistent with previously reported studies with a prodrug of parthenolide.

[19] = Phase II and III clinical trials; cited from earlier work

Sequence of CDK6 (Q00534 whole entry): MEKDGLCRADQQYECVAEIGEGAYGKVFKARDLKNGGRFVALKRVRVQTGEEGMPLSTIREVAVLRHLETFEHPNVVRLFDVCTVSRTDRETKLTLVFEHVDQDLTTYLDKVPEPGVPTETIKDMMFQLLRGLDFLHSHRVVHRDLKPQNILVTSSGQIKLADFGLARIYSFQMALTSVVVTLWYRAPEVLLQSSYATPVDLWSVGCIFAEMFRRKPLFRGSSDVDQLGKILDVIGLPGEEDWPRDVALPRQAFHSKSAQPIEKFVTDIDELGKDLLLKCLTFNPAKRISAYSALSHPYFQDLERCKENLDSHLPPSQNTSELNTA
Sequence of CDK6 (P30281 whole entry partner): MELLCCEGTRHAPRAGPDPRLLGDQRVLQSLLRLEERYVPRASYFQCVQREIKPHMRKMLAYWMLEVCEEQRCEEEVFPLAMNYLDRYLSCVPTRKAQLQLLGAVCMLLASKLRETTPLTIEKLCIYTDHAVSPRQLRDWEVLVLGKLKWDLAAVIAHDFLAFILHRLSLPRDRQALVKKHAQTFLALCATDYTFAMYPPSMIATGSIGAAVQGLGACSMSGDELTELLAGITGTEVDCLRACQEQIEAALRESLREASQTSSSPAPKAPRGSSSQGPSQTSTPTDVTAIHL
Sequence of CDK4 (P11802 whole entry): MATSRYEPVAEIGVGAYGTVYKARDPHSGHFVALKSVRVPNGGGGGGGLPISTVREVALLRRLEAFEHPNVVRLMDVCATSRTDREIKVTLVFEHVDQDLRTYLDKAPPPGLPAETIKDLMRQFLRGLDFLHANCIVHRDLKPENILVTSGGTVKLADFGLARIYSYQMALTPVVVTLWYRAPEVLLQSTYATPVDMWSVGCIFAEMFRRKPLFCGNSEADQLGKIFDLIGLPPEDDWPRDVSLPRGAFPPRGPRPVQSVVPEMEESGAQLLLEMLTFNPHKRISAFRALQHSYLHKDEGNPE
Sequence of CDK4 (P24385 whole entry partner): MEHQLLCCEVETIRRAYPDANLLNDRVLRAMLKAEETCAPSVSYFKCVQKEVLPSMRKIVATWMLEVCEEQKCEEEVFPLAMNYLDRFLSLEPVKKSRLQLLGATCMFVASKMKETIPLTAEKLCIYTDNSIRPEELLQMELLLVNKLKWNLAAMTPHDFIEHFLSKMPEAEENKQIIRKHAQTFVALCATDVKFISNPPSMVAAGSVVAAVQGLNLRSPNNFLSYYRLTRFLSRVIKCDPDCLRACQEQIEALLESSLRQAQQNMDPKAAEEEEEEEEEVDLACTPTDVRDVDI
T1 sequence (Q04206 whole entry): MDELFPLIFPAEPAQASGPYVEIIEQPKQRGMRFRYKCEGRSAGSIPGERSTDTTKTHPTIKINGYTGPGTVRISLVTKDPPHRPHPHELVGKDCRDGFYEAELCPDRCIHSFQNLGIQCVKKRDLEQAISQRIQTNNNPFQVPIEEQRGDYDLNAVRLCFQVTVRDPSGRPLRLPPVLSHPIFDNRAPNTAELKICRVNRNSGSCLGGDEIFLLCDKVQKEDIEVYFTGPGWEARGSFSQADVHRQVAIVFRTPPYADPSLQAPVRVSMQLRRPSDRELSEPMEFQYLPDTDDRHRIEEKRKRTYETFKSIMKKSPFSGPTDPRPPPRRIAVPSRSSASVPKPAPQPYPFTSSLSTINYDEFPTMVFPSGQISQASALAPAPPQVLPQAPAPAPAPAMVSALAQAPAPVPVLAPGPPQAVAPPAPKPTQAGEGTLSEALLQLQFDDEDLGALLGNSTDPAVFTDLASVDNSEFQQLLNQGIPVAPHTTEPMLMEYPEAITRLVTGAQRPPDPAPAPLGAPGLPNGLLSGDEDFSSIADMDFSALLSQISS
T2 sequence (O14920 whole entry): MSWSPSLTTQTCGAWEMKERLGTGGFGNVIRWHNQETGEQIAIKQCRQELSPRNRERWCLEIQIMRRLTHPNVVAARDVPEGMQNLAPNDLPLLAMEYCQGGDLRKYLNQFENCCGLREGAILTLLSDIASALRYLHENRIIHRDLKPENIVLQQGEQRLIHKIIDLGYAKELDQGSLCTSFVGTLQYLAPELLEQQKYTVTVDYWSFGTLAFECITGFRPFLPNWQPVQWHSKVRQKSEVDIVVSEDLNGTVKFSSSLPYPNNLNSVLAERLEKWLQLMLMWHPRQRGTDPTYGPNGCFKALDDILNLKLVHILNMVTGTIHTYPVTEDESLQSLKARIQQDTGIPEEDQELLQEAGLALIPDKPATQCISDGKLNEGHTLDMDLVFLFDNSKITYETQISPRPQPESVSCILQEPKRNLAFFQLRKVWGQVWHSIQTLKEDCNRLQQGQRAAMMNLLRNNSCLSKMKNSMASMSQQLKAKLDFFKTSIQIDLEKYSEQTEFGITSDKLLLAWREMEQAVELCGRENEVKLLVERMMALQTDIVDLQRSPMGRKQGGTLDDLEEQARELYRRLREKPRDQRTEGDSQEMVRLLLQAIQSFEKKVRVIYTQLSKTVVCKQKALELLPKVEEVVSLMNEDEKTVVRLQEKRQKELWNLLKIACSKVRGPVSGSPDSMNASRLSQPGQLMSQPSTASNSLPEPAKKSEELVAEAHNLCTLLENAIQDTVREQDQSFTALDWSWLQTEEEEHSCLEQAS

Compound: O=C(NC1CCNCC1)c1[nH]ncc1NC(=O)c1c(Cl)cccc1Cl [AT7519, reference compound]
potency rank among inhibitors treated as single agents [1]: AT7519>compound 19>parthenolide>palbociclib

Compound: O=C(NC1CCN(CC2CC3(OC2=O)C(=O)Nc2ccccc23)CC1)c1n[nH]cc1NC(=O)c1c(Cl)cccc1Cl (stereo not drawn) [Compound 7, 4-(2,6-dichlorobenzamido)-N-(1-((2′,5-dioxo-4,5-dihydro-3H-spiro[furan-2,3′-indolin]-4yl)methyl)piperidin-4-yl)-1H-pyrazole-3-carboxamide]
potency relative to the palbociclib based compounds (compounds 5 and 6) [1]: more potent

Compound: C/C1=C\CCC[C@@]2(C)O[C@@H]2[C@H]2OC(=O)C(CN3CCC(NC(=O)c4n[nH]cc4NC(=O)c4c(Cl)cccc4Cl)CC3)[C@@H]2C1 (stereo partly drawn) [Compound 8, 4-(2,6-dichlorobenzamido)-N-(1-(((3R,3aS,9aR,10aS,10bS,E)-6,9a-dimethyl-2-oxo2,3,3a,4,5,8,9,9a,10a,10b-decahydrooxireno[2′,3′:9,10]cyclodeca[1,2-b]furan-3yl)methyl)piperidin-4-yl)-1H-pyrazole-3-carboxamide]
potency relative to the palbociclib based compounds (compounds 5 and 6) [1]: more potent

Compound: C=C1CC2(OC1=O)C(=O)Nc1ccccc12 (stereo not drawn) [Compound 19, 4-methylene-3,4-dihydro-5H-spiro(furan-2,3′-indoline)-2′,5-dione, reference compound]
reactivity towards free cysteine [14]: reacted rapidly | potency rank among inhibitors treated as single agents [1]: AT7519>compound 19>parthenolide>palbociclib | IC50 [15]: 5.28 ± 0.17 µM | IC50 [16]: 20.4 ± 4.71 µM | IC50 [17]: 2.15 ± 0.15 µM

Compound: COc1cccc2c1C(=O)c1c(O)c3c(c(O)c1C2=O)C[C@@](O)(/C(CO)=N/NC(=O)CCCCCN1C(=O)C=CC1=O)C[C@@H]3O[C@H]1C[C@H](N)[C@H](O)[C@H](C)O1 [INNO-206]
cardiotoxicity profile compared with doxorubicin [19]: far superior

Now from value to compound, other results behind:

covalent binding of RELA protein (RELA): observed | covalent binding of IKKβ protein (IKKβ): observed
Compound: C#CCN1C(=O)C2(CC(CN3CCC(C(F)(F)F)CC3)C(=O)O2)c2ccccc21 (stereo not drawn) [Compound 4, 1′-(prop-2-yn-1-yl)-4-((4-(trifluoromethyl)piperidin-1-yl)methyl)-3,4-dihydro-5H-spiro[furan2,3′-indoline]-2′,5-dione]

IC50 [3]: 15.4 ± 1.5 µM | IC50 [4]: 9.3 ± 0.9 µM | fold less potent than palbociclib (CDK6): ~20 fold | IC50 (CDK6): 9 ± 1 nM | IC50 [5]: 17.9 ± 1.4 µM | IC50 [6]: > 40 µM | IC50 [7]: 5.5 ± 0.5 µM | IC50 [9]: 11.4 ± 0.9 µM | IC50 [10]: 6.6 ± 1.3 µM | IC50 [11]: 8.8 ± 1.6 µM | fold less potent than palbociclib (CDK4): ~100 fold | IC50 (CDK4): 46 ± 14 nM | IC50 [13]: 9.1 ± 0.9 µM
Compound: CC(=O)c1c(C)c2cnc(Nc3ccc(N4CCN(CC5CC6(OC5=O)C(=O)Nc5ccccc56)CC4)cn3)nc2n(C2CCCC2)c1=O (stereo not drawn) [Compound 5, 4-((4-(6-((6-Acetyl-8-cyclopentyl-5-methyl-7-oxo-7,8-dihydropyrido[2,3-d]pyrimidin-2yl)amino)pyridin-3-yl)piperazin-1-yl)methyl)-3,4-dihydro-5H-spiro[furan-2,3′-indoline]-2′,5dione]
fold less potent than the corresponding 1:1 mixture, on an average [2]: equipotent | fold more potent than the parthenolide-palbociclib compound 6 [2]: ~3 fold | average combination index (AveCI) ([3]; SKOV3 cells): 0.2 | IC50 [8]: 21.8 ± 1.5 µM | average combination index (AveCI) ([9]; OVSAHO cells, effective dose (ED) 50, 75 and 90): 0.9 | IC50 [12]: 14.6 ± 1.2 µM | average combination index (AveCI) ([12]; FT282E1 cells): > 1.0

IC50 [3]: > 40 µM | IC50 [4]: 32.6 ± 4.4 µM | fold less potent than palbociclib (CDK6): ~50 fold | IC50 (CDK6): 18 ± 1 nM | IC50 [5]: > 40 µM | IC50 [6]: > 40 µM | IC50 [7]: 25 ± 3.2 µM | IC50 [9]: 31.1 ± 2.3 µM | IC50 [10]: 31 ± 7 µM | IC50 [11]: 34.9 ± 6.3 µM | fold less potent than palbociclib (CDK4): ~200 fold | IC50 (CDK4): 85 ± 18 nM | IC50 [13]: 38.4 ± 4.5 µM
Compound: CC(=O)c1c(C)c2cnc(Nc3ccc(N4CCN(CC5C(=O)O[C@@H]6[C@H]7O[C@]7(C)CCC/C=C(\C)C[C@@H]56)CC4)cn3)nc2n(C2CCCC2)c1=O (stereo partly drawn) [Compound 6, 6-Acetyl-8-cyclopentyl-2-((5-(4-(((3R,3aS,9aR,10aS,10bS,E)-6,9a-dimethyl-2-oxo2,3,3a,4,5,8,9,9a,10a,10b-decahydrooxireno[2′,3′:9,10]cyclodeca[1,2-b]furan-3yl)methyl)piperazin-1-yl)pyridin-2-yl)amino)-5-methylpyrido[2,3-d]pyrimidin-7(8H)-one]
fold less potent than the corresponding 1:1 mixture, on an average [2]: ~7 fold | IC50 [8]: 25.6 ± 4.8 µM | IC50 [12]: > 40 µM

period over which the prodrug is hydrolyzed slowly to release the active compound 19 [18]: 72 h | reactivity towards free cysteine [14]: more stable | IC50 [16]: 10.8 ± 1.28 µM | IC50 [17]: 5.71 ± 0.24 µM
Compound: O=C1OC2(CC1CN1CCC(C(F)(F)F)CC1)C(=O)Nc1ccccc12 (stereo not drawn) [Compound 19-AP1, 4-((4-(trifluoromethyl)piperidin-1-yl)methyl)-3,4-dihydro-5H-spiro[furan-2,3′-indoline]-2′,5dione]
IC50 [15]: 10.2 ± 0.56 µM | potency relative to parent compound 19 [16]: more potent

IC50 [16]: 9.81 ± 1.07 µM | IC50 [17]: 5.38 ± 0.33 µM
Compound: CN(C)CC1CC2(OC1=O)C(=O)Nc1ccccc12 (stereo not drawn) [Compound 19-AP2, 4-((dimethylamino)methyl)-3,4-dihydro-5H-spiro[furan-2,3′-indoline]-2′,5-dione]
IC50 [15]: 12 ± 1.26 µM | potency relative to parent compound 19 [16]: more potent
